These results are taken from US9708334B2, “Substituted 2,4,5,6-tetrahydropyrrolo[3,4-c]pyrazole and 4,5,6,7-tetrahydro-2H-pyrazolo[4,3-c]pyridine compounds as GlyT1 inhibitors” (DART NEUROSCIENCE (CAYMAN) LTD., priority 2014, dated 2017).

For this assay, the target named is T1, GlyT1 (Homo sapiens, UniProt P48067).
T1 construct: expressed in transfected cells
T1 sequence (P48067 1-706): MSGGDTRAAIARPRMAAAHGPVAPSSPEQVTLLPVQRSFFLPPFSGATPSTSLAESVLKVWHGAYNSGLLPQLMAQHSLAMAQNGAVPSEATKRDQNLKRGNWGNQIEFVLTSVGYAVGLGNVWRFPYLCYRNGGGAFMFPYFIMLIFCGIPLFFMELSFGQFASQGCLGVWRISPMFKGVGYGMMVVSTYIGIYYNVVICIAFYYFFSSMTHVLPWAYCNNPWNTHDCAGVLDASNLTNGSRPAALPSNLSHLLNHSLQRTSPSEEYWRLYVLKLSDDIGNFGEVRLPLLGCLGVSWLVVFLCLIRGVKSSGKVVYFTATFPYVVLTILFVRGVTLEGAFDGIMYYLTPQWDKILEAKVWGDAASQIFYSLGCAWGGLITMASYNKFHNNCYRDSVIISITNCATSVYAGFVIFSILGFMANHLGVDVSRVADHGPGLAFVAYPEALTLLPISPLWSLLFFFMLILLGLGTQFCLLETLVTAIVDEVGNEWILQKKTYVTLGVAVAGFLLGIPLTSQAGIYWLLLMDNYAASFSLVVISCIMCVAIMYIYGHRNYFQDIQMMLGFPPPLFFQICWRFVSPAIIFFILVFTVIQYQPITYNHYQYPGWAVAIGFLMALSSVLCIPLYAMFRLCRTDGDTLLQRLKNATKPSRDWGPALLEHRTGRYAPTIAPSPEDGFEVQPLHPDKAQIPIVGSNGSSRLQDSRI
In words: Glycine Transporter 1 (GlyT1) uptake assay, scintillation proximity assay of [14C]-glycine uptake. Format: cell-based. Particulars: SPA, four parameter logistic fit, read-out: GlyT1 (pIC50) (converted). The essentials: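 [14C]-glycine uptake read by scintillation proximity on a plate counter. IC50 from four-parameter logistic fit of dose-response data.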
On the technique in general: SPA uses beads or plates that emit light when radiolabelled molecules are held near them.
With `C[C@H](Oc1ccc(C#N)cc1C(=O)N1Cc2cn(C3CCCCC3)nc2C1)C(F)(F)F` [Example 402, 3-{2-Cyclohexyl-2H 4H 5H 6H-pyrrolo[3,4-c]pyrazole-5-carbonyl}-4-{[(2S)-1 1 1-trifluoropropan-2-yl]oxy}benzonitrile], the IC50 was 100 to 1000 nM.

As for `CC(C)Oc1ccc(S(C)(=O)=O)cc1C(=O)N1Cc2cn(C3CCCCC3)nc2C1` [Example 403, 2-Cyclohexyl-5-[5-methanesulfonyl-2-(propan-2-yloxy)benzoyl]-2H 4H 5H 6H-pyrrolo[3,4-c]pyrazole], the IC50 is less than 100 nM. On to `C[C@H](Oc1ccc(C#N)cc1C(=O)N1Cc2cn(-c3ccnc(C4CC4)c3)nc2C1)C(F)(F)F` [Example 404, 3-[2-(2-Cyclopropylpyridin-4-yl)-2H 4H 5H 6H-pyrrolo[3,4-c]pyrazole-5-carbonyl]-4-{[(2S)-1 1 1-trifluoropropan-2-yl]oxy}benzonitrile], for which the IC50 was less than 100 nM. `CC(C)Oc1ccc(C#N)cc1C(=O)N1Cc2cn(-c3ccnc(C4CC4)c3)nc2C1` [Example 405, 3-[2-(2-Cyclopropylpyridin-4-yl)-2H 4H 5H 6H-pyrrolo[3,4-c]pyrazole-5-carbonyl]-4-(propan-2-yloxy)benzonitrile]: the IC50 was less than 100 nM. Regarding `CC(C)Oc1ccc(S(C)(=O)=O)cc1C(=O)N1Cc2cn(C3CCCC3)nc2C1` [Example 406, 2-Cyclopentyl-5-[5-methanesulfonyl-2-(propan-2-yloxy)benzoyl]-2H 4H 5H 6H-pyrrolo[3,4-c]pyrazole], the IC50 was less than 100 nM. On to `CC(C)Oc1ccc(C#N)cc1C(=O)N1Cc2cn(C3CCOCC3)nc2C1` [Example 408, 3-[2-(Oxan-4-yl)-2H 4H 5H 6H-pyrrolo[3,4-c]pyrazole-5-carbonyl]-4-(propan-2-yloxy)benzonitrile], for which the IC50 is 100 to 1000 nM. As to `C[C@H](Oc1ccc(S(C)(=O)=O)cc1C(=O)N1Cc2cn(CC3CCC3)nc2C1)C(F)(F)F` [Example 409], the IC50 was less than 100 nM. Consider `CC(C)Oc1ccc(S(C)(=O)=O)cc1C(=O)N1Cc2cn(CC3CCC3)nc2C1` [Example 410, 2-(Cyclobutylmethyl)-5-[5-methanesulfonyl-2-(propan-2-yloxy)benzoyl]-2H 4H 5H 6H-pyrrolo[3,4-c]pyrazole], for which the IC50 is less than 100 nM. Under `CC(C)Oc1ccc(C#N)cc1C(=O)N1Cc2cn(CC3CCC3)nc2C1` [Example 411, 3-[2-(Cyclobutylmethyl)-2H 4H 5H 6H-pyrrolo[3,4-c]pyrazole-5-carbonyl]-4-(propan-2-yloxy)benzonitrile] stands 100 to 1000 nM; under `C[C@H](Oc1ccc(C#N)cc1C(=O)N1Cc2cn(C3CCOCC3)nc2C1)C(F)(F)F` [Example 412, 3-[2-(Oxan-4-yl)-2H 4H 5H 6H-pyrrolo[3,4-c]pyrazole-5-carbonyl]-4-{[(2S)-1 1 1-trifluoropropan-2-yl]oxy}benzonitrile], less than 100 nM; under `C[C@H](Oc1ccc(S(C)(=O)=O)cc1C(=O)N1Cc2cn(CC3CCCC3)nc2C1)C(F)(F)F` [Example 413, 2-(Cyclopentylmethyl)-5-(5-methanesulfonyl-2-{[(2S)-1 1 1-trifluoropropan-2-yl]oxy}benzoyl)-2H 4H 5H 6H-pyrrolo[3,4-c]pyrazole], less than 100 nM. For `C[C@H](Oc1ccc(C#N)cc1C(=O)N1Cc2cn(CC3CCCC3)nc2C1)C(F)(F)F` [Example 414, 3-[2-(Cyclopentylmethyl)-2H 4H 5H 6H-pyrrolo[3,4-c]pyrazole-5-carbonyl]-4-{[(2S)-1 1 1-trifluoropropan-2-yl]oxy}benzonitrile], the IC50 is 100 to 1000 nM.

`CCS(=O)(=O)c1ccc(OC(C)C)c(C(=O)N2Cc3cn(C4CCCC4)nc3C2)c1` [Example 415, 2-Cyclopentyl-5-[5-(ethanesulfonyl)-2-(propan-2-yloxy)benzoyl]-2H 4H 5H 6H-pyrrolo[3,4-c]pyrazole]: the IC50 is less than 100 nM. On to `CC[C@H](C)Cn1cc2c(n1)CN(C(=O)c1cc(C#N)ccc1OC(C)C)C2` [Example 416, 3-{2-[(2S)-2-Methylbutyl]-2H 4H 5H 6H-pyrrolo[3,4-c]pyrazole-5-carbonyl}-4-(propan-2-yloxy)benzonitrile], for which the IC50 was 100 to 1000 nM. Then `CCS(=O)(=O)c1ccc(O[C@@H](C)C(F)(F)F)c(C(=O)N2Cc3cn(C4CCCC4)nc3C2)c1` [Example 417, 2-Cyclopentyl-5-[5-(ethanesulfonyl)-2-{[(2S)-1 1 1-trifluoropropan-2-yl]oxy}benzoyl]-2H 4H 5H 6H-pyrrolo[3,4-c]pyrazole], with less than 100 nM; and `CC[C@H](C)Cn1cc2c(n1)CN(C(=O)c1cc(C#N)ccc1O[C@@H](C)C(F)(F)F)C2` [Example 418, 3-{2-[(2S)-2-Methylbutyl]-2H 4H 5H 6H-pyrrolo[3,4-c]pyrazole-5-carbonyl}-4-{[(2S)-1 1 1-trifluoropropan-2-yl]oxy}benzonitrile], with 100 to 1000 nM; and `C[C@H](Oc1ccc(C#N)cc1C(=O)N1Cc2cn(CC3CCOC3)nc2C1)C(F)(F)F` (stereo partly drawn) [Example 419, 3-[2-(Oxolan-3-ylmethyl)-2H 4H 5H 6H-pyrrolo[3,4-c]pyrazole-5-carbonyl]-4-{[(2S)-1 1 1-trifluoropropan-2-yl]oxy}benzonitrile], with 100 to 1000 nM. As to `CC(C)Oc1ccc(C#N)cc1C(=O)N1Cc2cn(CC3CCOC3)nc2C1` (stereo not drawn) [Example 420, 3-[2-(Oxolan-3-ylmethyl)-2H 4H 5H 6H-pyrrolo[3,4-c]pyrazole-5-carbonyl]-4-(propan-2-yloxy)benzonitrile], the IC50 is 100 to 1000 nM. `C[C@H](Oc1ccc(C#N)cc1C(=O)N1Cc2cnn(-c3ccnnc3)c2C1)C(F)(F)F` [Example 421, 3-[1-(Pyridazin-4-yl)-1H 4H 5H 6H-pyrrolo[3,4-c]pyrazole-5-carbonyl]-4-{[(2S)-1 1 1-trifluoropropan-2-yl]oxy}benzonitrile]: the IC50 was 100 to 1000 nM.

Consider `CC(C)Oc1ccc(C#N)cc1C(=O)N1Cc2cn(-c3ccnnc3)nc2C1` [Example 422, 4-(Propan-2-yloxy)-3-[2-(pyridazin-4-yl)-2H 4H 5H 6H-pyrrolo[3,4-c]pyrazole-5-carbonyl]benzonitrile], for which the IC50 is 100 to 1000 nM. Then `C[C@H](Oc1ccc(C#N)cc1C(=O)N1Cc2cn(-c3ccnnc3)nc2C1)C(F)(F)F` [Example 423, 3-[2-(Pyridazin-4-yl)-2H 4H 5H 6H-pyrrolo[3,4-c]pyrazole-5-carbonyl]-4-{[(2S)-1 1 1-trifluoropropan-2-yl]oxy}benzonitrile], with less than 100 nM; and `CC(C)Oc1ccc(C#N)cc1C(=O)N1Cc2cn(-c3ccn4ccnc4c3)nc2C1` [Example 424, 3-(2-{Imidazo[1 2-a]pyridin-7-yl}-2H 4H 5H 6H-pyrrolo[3,4-c]pyrazole-5-carbonyl)-4-(propan-2-yloxy)benzonitrile], with 1000 to 10000 nM; and `C[C@H](Oc1ccc(C#N)cc1C(=O)N1Cc2cn(-c3ccn4ccnc4c3)nc2C1)C(F)(F)F` [Example 425, 3-(2-{Imidazo[1 2-a]pyridin-7-yl}-2H 4H 5H 6H-pyrrolo[3,4-c]pyrazole-5-carbonyl)-4-{[(2S)-1 1 1-trifluoropropan-2-yl]oxy}benzonitrile], with 100 to 1000 nM.

Regarding `CS(=O)(=O)c1ccc(-c2cccc(F)c2)c(C(=O)N2Cc3cn(CC4CCC4)nc3C2)c1` [Example 426, 2-(Cyclobutylmethyl)-5-[2-(3-fluorophenyl)-5-methanesulfonylbenzoyl]-2H 4H 5H 6H-pyrrolo[3,4-c]pyrazole], the IC50 was less than 100 nM.
